Where “and” joins values, the source holds several entries; their conditions need not be identical. Identical values can stand only once.

The experiment relates to Salmonella Typhi PhoP-promoter GFP reporter, fluorescence, 4 h. Briefly: PhoP regulon inhibitors, Salmonella typhi PhoP promoter GFP reporter, confirmatory (AID 1850).
Take `Cc1ccc(NC(=O)c2ccc([N+](=O)[O-])o2)c(C)c1`: the IC50 is 76.6 µM.
On to `O=C(Cn1nc(CNc2ccc(Br)cc2)[n+]2c1CCCCC2)c1ccc([N+](=O)[O-])cc1`, for which the IC50 was 40.1 µM.
Then `Cc1ccc(C)c(NC(=O)c2ccccc2O)c1`, with 75.6 µM; and `c1ccc2c(c1)OC(CCCN1CCCCC1)c1ccccc1S2` (centres undefined), with 95.1 µM; and `Oc1[nH]c2ccccc2c1N=NC(=S)N1CCOCC1`, with 35.7 µM.
On to `COc1cc(/C=N/NC(=O)c2cncc(Br)c2)cc([N+](=O)[O-])c1O`, for which the IC50 is 63.5 µM.
Next, `O=C(Cn1nc(CNc2ccc(Cl)cc2)[n+]2c1CCCCC2)c1ccc(Br)cc1`: 51.4 µM; `O=C(N/N=C/c1cc(Cl)cc(Cl)c1O)c1ccncc1`: 35.2 µM.
For `CC1CCC(C(C)C)C(OC(=O)C[n+]2cc(-c3ccc(Cl)cc3)n3c2CCC3)C1` (centres undefined), the IC50 is 38 µM.
In the case of `Cc1cccc(Nc2nc(NCc3ccco3)c3ccccc3n2)c1`, the IC50 is 4.95 µM.
Consider `O=C(NC(=S)NNC(=O)c1cccs1)c1ccc(Br)o1`, for which the IC50 was 64.3 µM.
Then `O=c1cc(-c2ccccc2)cc(-c2ccccc2)n1O`, with 19.2 µM; and `CN(C)CCCN(C(=O)c1ccc2c(c1)CCCC2)c1nc2ccc(Cl)cc2s1`, with 83.7 µM.
Consider `CCCCOc1ccc(C(=O)NNC(=S)NC(=O)CC)cc1`, for which the IC50 was 37.1 µM.
For `CNCCCC1Sc2ccccc2Oc2ccccc21` (centres undefined), the IC50 is 98.5 µM.
Then `Oc1ccc(COCc2ccccc2)c2cccnc12`, with 37.1 µM; and `O=C(/C=C/c1cc(Br)ccc1O)c1ccco1`, with 83.9 µM.
Then `CCCCOc1ccc(CN=C(N)N)cc1Cl`, with 134 µM; and `Cc1ccccc1C(=O)Nc1cccc(C(=O)N/N=C/c2cc(Cl)cc([N+](=O)[O-])c2O)c1`, with 47.6 µM; and `O=C(CNC(=O)c1cccc(F)c1)N/N=C/c1ccc([N+](=O)[O-])s1`, with 20 µM.
As for `C#CCOCCOCCOCCNc1nc(N2CCN(C(=O)CCCCCCCCCCNC(=O)[C@H](CCCCN)n3cc(CCO)nn3)CC2)nc(N2CCN(C(=O)CCCCCCCCCCNC(=O)[C@H](CCCN=C(N)N)n3cc(C[C@@H](C)CC)nn3)CC2)n1`, the IC50 is 34.5 µM.
On to `CCOc1ccc(/C=N/NC(=O)c2[nH]ncc2Br)c(O)c1`, for which the IC50 was 138 µM.
For the compound `COc1cc(CNCCc2ccccc2)cc(Cl)c1OCc1ccccc1`, the IC50 is 35.9 µM.
Next, `Nc1nc2ccccc2n1Cc1ccc(Cl)c(Cl)c1`: 79.7 µM.
Next, `COC(=O)C1=C(C)N(Cc2ccccc2)C(=NCc2cccc(C(F)(F)F)c2)N[C@H]1c1cccc(F)c1`: 33.3 µM; `Cc1cc(C)n(-c2nc(NCCN(C)C)c3c4c(sc3n2)CCCC4)n1`: 45.3 µM.
With `CN(C)CC/C=C1\c2ccccc2Sc2ccc(Cl)cc21`, the IC50 is 72.2 µM.
Turning to `Oc1ccc(C[C@H]2CNCCN2CCCCC2CCCCC2)cc1`, the IC50 was 64.5 µM.
Then `CN1CCN(c2c(F)cc3c(=O)c(C(=O)O)cn4c3c2OCN4C)CC1`, with < 0.23 µM; and `CO[C@H]1C=CO[C@@]2(C)Oc3c(C)c(O)c4c(O)c(c5c(c4c3C2=O)NC2(CCN(CC(C)C)CC2)N=5)=NC(=O)C(C)=CC=C[C@H](C)[C@H](O)[C@@H](C)[C@@H](O)[C@@H](C)[C@H](OC(C)=O)[C@@H]1C`, with 1.53 µM.
Turning to `N/C(=N\N=C/c1ccc(F)cc1)N/N=C\c1ccc(F)cc1`, the IC50 was 37.8 µM.
For `CCCCCCCCNC(C)C(O)c1ccc(SC(C)C)cc1` (centres undefined), the IC50 is 25.2 µM.
Next, `Cc1cc2oc(=O)cc(CN3CCN(C/C=C/c4ccccc4)CC3)c2cc1O`: 80.5 µM; `O=[N+]([O-])c1cc(Cl)cc(/C=N/NC(=S)Nc2ccc(S(=O)(=O)N3CCOCC3)cc2)c1O`: 80.3 µM.
Consider `CC(NCC(O)COCCC12CC3CC(CC(C3)C1)C2)c1ccccc1` (centres undefined), for which the IC50 was 31.4 µM.
Next, `C[C@H]1c2cccc(O)c2C(O)=C2C(=O)[C@]3(O)C(O)=C(C(N)=O)C(=O)[C@@H](N(C)C)C3[C@@H](O)C21` (some centres undefined): 1.91 µM; `Cc1cc(Cl)c(OCCCNCc2ccccc2)c(Br)c1`: 68.6 µM.
Then `CCCCCCCCCCOC(=O)Cn1c(COc2ccccc2C)[n+](C)c2ccccc21`, with 13.2 µM.
Then `c1cc2c(cc1C1CCCCC1)c1c3n2CCCNC3CCC1` (centres undefined), with 31.2 µM.
`O=C(CCN1CCOCC1)N/N=C/c1cc(Br)cc(Br)c1O`: the IC50 is 31.1 µM.
Then `O=C(Nc1nnc(-c2ccco2)o1)c1cccc(Cl)c1`, with 36.9 µM.
Next, `O=C(N[C@H](CO)[C@H](O)c1ccc([N+](=O)[O-])cc1)C(Cl)Cl`: 4.85 µM.
As to `COc1c(N2CCN(C(=S)Nc3ccccc3F)C(C)C2)c(F)cc2c(=O)c(C(=O)O)cn(C3CC3)c12` (centres undefined), the IC50 was 1.63 µM.
Next, `Cc1ccc(-c2[nH]ncc2/C=N/n2c(C)nc3ccccc3c2=O)cc1`: 149 µM; `CCSc1ccc2c(c1)N(CCCN1CCN(C)CC1)c1ccccc1S2`: 45.5 µM; `C=C1c2c(Cl)ccc(O)c2C(O)=C2C(=O)[C@]3(O)C(O)=C(C(N)=O)C(=O)[C@@H](N(C)C)[C@@H]3[C@@H](O)C12` (some centres undefined): 0.8 µM.
As to `Cc1cc(C2N=C(N)Nc3nc4ccccc4n32)c(C)n1-c1ccccc1Cl` (centres undefined), the IC50 was 32 µM.
For `Cc1nc2c(=O)n(C)c(=O)nc-2n(C)n1`, the IC50 is 1.29 µM.
Next, `CN(C)CCCN1c2ccccc2Sc2ccc(Cl)cc21`: 68.6 µM and 39 µM; `COc1ccc(Nc2cc(C)nc(NCc3ccccc3)n2)cc1`: 74.1 µM; `CCn1cc(C(=O)O)c(=O)c2cc(F)c(N3CCN(C(=S)NC(=O)c4ccccc4F)CC3)cc21`: 55.1 µM.
Next, `O=C(Cn1cncn1)N/N=C/c1ccccc1O`: 139 µM.
For `c1ccc2c(c1)CCc1ccccc1C2=C1CCNCC1`, the IC50 is 74.9 µM.
Then `CCOc1ccc(-c2cc(C)[n+](CCN(CC)CC)c(-c3ccc(OCC)cc3)c2)cc1`, with 37.5 µM; and `Cc1cc(C)c(NC(=O)C[N+](C)(C)CC(O)COc2cccc3ccccc23)c(C)c1` (centres undefined), with 46.3 µM.
Next, `O=C(C[n+]1cc(-c2ccc(Cl)cc2)n2c1CCC2)Nc1nc(-c2ccccc2)cs1`: 22 µM.
In the case of `Nc1cccc2nc3ccccc3cc12`, the IC50 is 35.7 µM.
`COc1ccc(C(=O)NC(=S)NNC(=O)c2cccc(C)c2)cc1`: the IC50 is 61.4 µM.
Next, `O=C(N/N=C/c1cc(Cl)cc([N+](=O)[O-])c1O)C1CC1`: 106 µM; `O=C(CSc1ccccn1)N/N=C/c1cc([N+](=O)[O-])ccc1O`: 76.1 µM; `O=C(Nc1cccnc1)c1cc(Br)c(Br)s1`: 19.1 µM.
Then `Cc1ccc(C(c2cc(Cl)c3cccnc3c2O)N2CCN(C)CC2)cc1` (centres undefined), with 37 µM.
Then `OC1CCCN(Cc2ccc3ccc4cccc5ccc2c3c45)C1` (centres undefined), with 79.3 µM.
As for `O=S1(=O)Nc2c(ccc3cccnc23)-c2ccccc21`, the IC50 was 2.17 µM.
For the compound `OC(CNCCc1ccc(Cl)cc1)COc1cc(Cl)ccc1Cl` (centres undefined), the IC50 was 67.9 µM.
Then `CN(C)CC/C=C1/c2ccccc2Sc2ccc(Cl)cc21`, with 49.1 µM; and `CCCCc1ccc(N/C(N)=N/c2nc(C)cc(C)n2)cc1`, with 77.8 µM.
Turning to `O=C(CSc1nc2ccccc2[nH]1)Nc1ccc(F)c(F)c1`, the IC50 was 62.5 µM.
Then `Cc1ccc2sc(N(CCCN(C)C)C(=O)c3ccc(Br)s3)nc2c1C`, with 36.8 µM.

What is called IC50 is the midpoint of a concentration-inhibition curve.

The record behind these values is PubChem BioAssay AID1850 (Southern Research Specialized Biocontainment Screening …, 2009).
